Tests used:
mdr-1 gene = conditions: human neuroblastoma cells; cited from earlier work
Pgp mRNA = assay: RT-PCR with 32P-ATP of Pgp mRNA levels in BE(2)-C neuroblastoma cell line; format: cell-based; design: reduction in Pgp mRNA levels, dose dependence: dose or concentration left out as unconfirmed; conditions: BE(2)-C cells
Procedure: (§1) RT-PCR was performed and [^32P]ATP was incorporated into the PCR reaction. Radioactivity was measured following gel separation of PCR product.
as §1
Tests were performed in a BE(2)—C neuroblastoma cell line. This cell line was used to test the ability of (+)pentazocine to reduce levels of Pgp mRNA and corresponding protein expression in a dose-dependent manner. Pgp levels were tested at the mRNA level by reverse-transcription polymerase chain reaction (RT-PCR) in the presence of ^32P-ATP. Incorporation of the radiolabeled nucleotide was measured following electrophoresis of the PCR product.

Pgp [1] = assay: Western blotting of Pgp protein levels in BE(2)-C cells (antibody C219); format: cell-based; conditions: 10 μM (FIG. 3)
Procedure: FIG. 3. depicts Western Blot showing time-dependent reduction of Pgp expression in BE(2)—C cells following 10 μM (+)pentazocine treatment.
(§2) Protein levels were monitored by Western blotting, using monoclonal antibodies specific to Pgp (e.g., C219).

Pgp [2] = assay: Western blotting of Pgp protein levels in ADX cells (antibody C219); format: cell-based, Chinese hamster; conditions: 10 μM (FIG. 4)
From the text: as §2

Question: Which “effect on expression of the mdr-1 gene” value (mdr-1 gene) does the source give for `Br.Br.CN(CCc1ccc(Cl)c(Cl)c1)[C@H]1CCCC[C@H]1N1CCCC1` [BD 737] here?
Answer: The value was “no significant effect”.

Question: Which “decrease in Pgp mRNA” value (Pgp mRNA; 1 μM) does the source give for `CC(C)=CCN1CCC2(C)c3cc(O)ccc3CC1C2C` (single isomer, unassigned; (+)) [(+)pentazocine] here?
Answer: The value was “two-fold decrease”.

Question: What about the “time of maximal reduction in Pgp mRNA levels post-treatment” value (Pgp mRNA; 10 μM (FIG. 1)) of the same compound?
Answer: The value was 12 to 18 h.

Question: What about the “reduction in Pgp mRNA levels, dose dependence” value (Pgp mRNA; concentrations (FIG. 2)) of the same compound?
Answer: The value was “dose-dependent”.

Question: And the “time of maximal decrease of Pgp protein levels” value (Pgp [1])?
Answer: Its value is 12 to 18 h.

Question: What about the “time of maximal decrease of Pgp protein levels” value (Pgp [2]) of the same compound?
Answer: Its value is 12 to 18 h.
